Measured values reported in publication PMC4718068 (Translation, 2013).

Key:
[1] = biological target: Ribosomes from E. coli MRE 600 (E. coli MRE 600) (UniProt P0AG67); assay: stopped-flow fluorescence of mant-nucleotide excited by FRET from Trp of EF-G
EF-G [2] = biological target: EF-G (Escherichia coli, UniProt P0A6M8); assay: equilibrium titration, Trp fluorescence; assay type: binding
EF-G [3] = biological target: EF-G (Escherichia coli, UniProt P0A6M8, H92A); assay: equilibrium titration, Trp fluorescence; assay type: binding
Chain of EF-G (Escherichia coli, UniProt P0A6M8, H92A) (P0A6M8 2-704 H92A): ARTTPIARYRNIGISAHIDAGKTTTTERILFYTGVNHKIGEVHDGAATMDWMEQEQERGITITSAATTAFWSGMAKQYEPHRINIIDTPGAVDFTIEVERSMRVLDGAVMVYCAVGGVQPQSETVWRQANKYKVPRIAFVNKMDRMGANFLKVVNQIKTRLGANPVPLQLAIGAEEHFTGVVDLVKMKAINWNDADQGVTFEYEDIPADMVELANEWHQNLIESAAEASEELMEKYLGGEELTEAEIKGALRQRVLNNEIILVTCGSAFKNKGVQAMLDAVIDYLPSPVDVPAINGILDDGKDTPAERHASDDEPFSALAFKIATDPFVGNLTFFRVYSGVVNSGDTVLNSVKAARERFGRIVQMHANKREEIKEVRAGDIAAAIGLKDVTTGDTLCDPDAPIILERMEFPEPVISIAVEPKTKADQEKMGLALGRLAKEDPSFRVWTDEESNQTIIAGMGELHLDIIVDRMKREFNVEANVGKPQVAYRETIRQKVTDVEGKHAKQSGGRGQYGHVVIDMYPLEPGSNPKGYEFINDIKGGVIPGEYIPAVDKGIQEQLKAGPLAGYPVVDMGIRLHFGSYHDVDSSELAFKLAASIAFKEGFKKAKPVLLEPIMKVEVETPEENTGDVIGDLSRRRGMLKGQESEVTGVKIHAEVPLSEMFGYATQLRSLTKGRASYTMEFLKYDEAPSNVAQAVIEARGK

Chain of EF-G (Escherichia coli, UniProt P0A6M8) (P0A6M8 2-704): as the sequence (P0A6M8 2-704 H92A) above, with A91H counted along it

rate of formation of the ribosome–EF-G-mant-GTP complex [1] [s⁻¹]	Kd (EF-G [2]) [nM]	Kd (EF-G [3]) [nM]	Molecule
1	–	–	EF-G(H91A) (enzyme)
–	1000 to 2000	1000 to 2000	Nc1nc2c(ncn2[C@@H]2O[C@H](COP(=O)(O)OP(=O)(O)OP(=O)(O)O)[C@@H](O)[C@H]2O)c(=O)[nH]1 [GTP]
